Experimental data as given in patent US9518974B2, “Sensor system for detecting organophosphorus residues by inducing coagulation of gold nanoparticles” (priority 2014, dated 2016).

Biological target: EGFP (Aequorea victoria, UniProt P42212, F64L/H231L/S65T)
Test: Influence of organophosphorus pesticide on activity (fluorescence) of EGFP
Details: pesticide 10 ppb to 10 ppm, excitation 480 nm, emission 510 nm, control 10% methanol

SMILES	intensity of fluorescence of EGFP
CCOP(=O)(Sc1ccccc1)Sc1ccccc1 [edifenphos]	the same results
CC(C)OP(=O)(OC(C)C)SCc1ccccc1 [iprobenfos]	the same results
